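Method: 48-hour compound exposure of cells in 96-well plates, five concentrations, linear interpolation of endpoints. Here, GI50 denotes the concentration required for 50% inhibition of growth. TGI: total growth inhibition.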 Where a SMILES comes first, the peptide text is derived from it.
What was measured:
Assay in all cases: growth of human tumour cells (NCI), 48 h
786-0 renal = tested on: 786-0 renal
HCC-2998 colon = tested on: HCC-2998 colon
HCT-15 colon = tested on: HCT-15 colon
K-562 leukemia = tested on: K-562 leukemia
SF-539 CNS = tested on: SF-539 CNS
T-47D breast = tested on: T-47D breast
UACC-62 melanoma = tested on: UACC-62 melanoma
KM12 colon = tested on: KM12 colon
NCI-H226 lung = tested on: NCI-H226 lung
SK-OV-3 ovarian = tested on: SK-OV-3 ovarian

SMILES	TGI (786-0 renal) [µM]	TGI (HCC-2998 colon) [µM]	TGI (HCT-15 colon) [µM]	TGI (K-562 leukemia) [µM]	TGI (SF-539 CNS) [µM]	TGI (T-47D breast) [µM]	TGI (UACC-62 melanoma) [µM]	TGI (KM12 colon) [µM]	TGI (NCI-H226 lung) [µM]	TGI (SK-OV-3 ovarian) [µM]	GI50 (K-562 leukemia) [µM]	GI50 (HCC-2998 colon) [µM]	GI50 (HCT-15 colon) [µM]	GI50 (KM12 colon) [µM]	GI50 (NCI-H226 lung) [µM]	GI50 (SF-539 CNS) [µM]	GI50 (SK-OV-3 ovarian) [µM]	GI50 (T-47D breast) [µM]	GI50 (UACC-62 melanoma) [µM]
O=c1[nH]c2ccc(C(F)(F)F)cc2nc1-c1ccccc1	> 100	> 100	> 100	> 100	> 100	> 100	> 100												
CN(C)c1nc(N(C)C)nc(N(C)C)n1	> 150	> 123	> 150	> 150	> 142	> 150	> 150	> 150	> 150	> 150									
CC(C)(C)OC(=O)[N+](=N)C(=O)C1CCC(=O)N1C(=O)OCc1ccccc1 (centres undefined)	> 100	> 100		> 100		> 100	> 100	> 100	> 100	> 100									
Cc1ccc2c(c1)SSSSS2	37.2	31.6	30	> 100		29	36.2	34		39.8									
O=c1c2ccccc2nc2n1NC(c1c(Cl)cccc1Cl)N2c1cccc(Cl)c1 (centres undefined)	4.24	> 100	> 100	> 100	31	32.2	22.9	> 100	6.36	6.81									
C=C1C(=O)O[C@@H]2[C@H]3O[C@]3(C)CCC=C(C)CC[C@@H]12		56.1	35.3	130	44.6		37.7	53.6	49.1	131									
CC(=O)OCC1OC(On2ccccc2=S)C(OC(C)=O)C(OC(C)=O)C1OC(C)=O (centres undefined)	> 100	> 100	> 100	> 100	> 100	> 100	> 100	> 100		> 100									
CSC(SC)=C1CC(=O)Nc2ccccc2C1=O	> 100	> 100	> 100	95.8	> 100	56.5	> 100	> 100	> 100	> 100									
Cc1ccc(Nc2nc(=S)[nH]c3[nH]ncc23)cc1	> 100	> 100	> 100	> 100	> 100	> 100	> 100	> 100	> 100	> 100									
OC1(c2ccccc2)CC2CCC(C1)N2CCc1ccccc1 (centres undefined)	> 100	> 100	> 100	> 100	> 100	> 100	> 100	> 100	> 100	> 100									
NC(=O)NC(=O)c1cnccn1	> 100	> 100	> 100	> 100	> 100		> 100	> 100	> 100	> 100									
COc1cc(NS(C)(=O)=O)ccc1NCc1cnc2ccc3[nH]c(C)ccc3c12	> 100		> 100	62.2	> 100	75	> 100	> 100	> 100	> 100									
Cc1cc2nc3n[nH]c(N)c3nc2cc1C	> 100	> 100	> 100	> 100			> 100	> 100	> 100	> 100									
CC1NC(=O)CNC(=O)CNC(=O)C(Cc2ccc(O)cc2)NC(=O)C(C(C)C)NC(=O)C(C)NC1=O (centres undefined) (cyclo(GGAAVY); configuration not given here)		> 100	> 100	> 100	> 100		> 100	> 100	> 100	> 100	> 100								
O=C(O)CC(C(=O)O)c1ccccc1[N+](=O)[O-] (centres undefined)	> 100	> 100	> 100	> 100		> 100	> 100	> 100	> 100	> 100									
O=C(NN=C1CCN(Cc2ccccc2)CC1)C(O)(c1ccccc1)c1ccccc1	> 100	> 100	> 100		> 100	> 100	> 100	> 100	> 100	> 100									
CSc1ccc2c(cc1=O)[C@@H](NC(C)=O)CCc1cc(O)c(O)c(O)c1-2	32.4	50.5	34.2			> 100	> 100	41.4	33.4	> 100									
CC1=C2C(O)C(C(C)C(=O)NCC(C)C)CCC2(C)C=CC1=O (centres undefined)		> 100	> 100	> 100	> 100		> 100	> 100	> 100										
C=C[C@@H]1OC(=O)O[C@H]1CO	> 100		> 100	> 100			> 100	> 100	> 100	> 100									
CC(C(=O)N1C(=O)N(C(=O)C(C)C(O)c2ccccc2)C(c2ccccc2)C1c1ccccc1)C(O)c1ccccc1 (centres undefined)	> 100	> 100	> 100	41.6	22.6	> 100	40.5	5.69	34.3										
O=c1c(O)c(-c2ccc(O)cc2O)oc2cc(O)cc(O)c12	> 100	> 100	> 100	> 100	> 100	> 100		> 100	> 100										
CCCCCCCCCOC(=O)c1cnc(Cl)cn1	> 100		32	> 100	58.1	51.2	33.3	33.4	32.7	> 100									
Cc1[nH]c2ncn3nc(C(Cl)(Cl)Cl)nc3c2c1Cc1ccccc1	> 100	> 100	> 100		> 100	> 100	> 100	> 100	> 100	> 100									
CCCCCC(CN1CCOCC1)C(=O)/C=C/c1ccccc1 (centres undefined)	3.14	4.46	4.92	5.85	4.71		3.37	3.79	9.31	11.8									

SMILES	TGI (786-0 renal) [µM]	TGI (HCC-2998 colon) [µM]	TGI (HCT-15 colon) [µM]	TGI (K-562 leukemia) [µM]	TGI (SF-539 CNS) [µM]	TGI (T-47D breast) [µM]	TGI (UACC-62 melanoma) [µM]	TGI (KM12 colon) [µM]	TGI (NCI-H226 lung) [µM]	TGI (SK-OV-3 ovarian) [µM]	GI50 (K-562 leukemia) [µM]	GI50 (HCC-2998 colon) [µM]	GI50 (HCT-15 colon) [µM]	GI50 (KM12 colon) [µM]	GI50 (NCI-H226 lung) [µM]	GI50 (SF-539 CNS) [µM]	GI50 (SK-OV-3 ovarian) [µM]	GI50 (T-47D breast) [µM]	GI50 (UACC-62 melanoma) [µM]
CN(C1=NCCO1)c1cccc2ccccc12		> 10	> 10	> 10	> 10	> 10	> 10	> 10	> 10	> 10									
O=C1C=CC(=O)c2c1ccc1c3ccccc3n(-c3ccccn3)c21	28.5	> 100	35.3	51.1	68.2			> 100	82.7	> 100									
CC(C)=CCC[C@]1(C)CC[C@]2(C)C3CCC(=C(C)C)[C@@H](CCCO)[C@]3(C)CC[C@@]2(C)C1 (some centres undefined)	> 100	> 100	> 100			29.6	> 100	> 100	> 100	> 100									
CN1CCCN2CCN(C)CCN(CC1)CC2	> 100	> 100	> 100	> 100	> 100	> 100	> 100	> 100		> 100									
CN1C2CCC1CC(OC(c1ccccc1)c1ccccc1)C2 (centres undefined)	27		78.8	34.5		80.1	30.4	37.9	72.6	47.1									
CCc1ccc(-c2nnc(COc3ccc(-c4nc5ccc(C)cc5[nH]4)cc3OC)o2)cc1		> 100	10.3	> 100	3.21	5.22	5.09	> 100	4.28	11.1	3.12	11.4	2.82	5.39	2.01	1.7	3.29	2.15	2.12
CCOC(=O)C1(C(=O)OCC)C[C@]23OCCC(=O)[C@H]2[C@H]2C(=O)OC(C)(C)O[C@]23C1	> 100	> 100	> 100		> 100	> 100	> 100	> 100											
CCOC(=O)CC(=O)NC1CC2CCC1(C)C2(C)C (centres undefined)	> 100	> 100	> 100	> 100	> 100		> 100	> 100	> 100	> 100									
COC(=O)c1ccccc1C1CN=NC12Cc1ccc3ccccc3c1C2=O (centres undefined)	> 100	> 100	> 100	> 100	> 100	96.9	> 100	> 100	> 100										
CCOC(=O)C1C(=O)CC(O)(OCC)C(C(=O)OCC)C1c1ccc(OC)cc1 (centres undefined)	> 100	> 100	> 100	> 100		> 100	> 100	> 100	> 100										
COc1c(CC=C(C)C)c(O)c(C(CC(C)C)c2c(O)c(C(C)=O)c(O)c3c2OC(C(C)(C)O)C3)c(O)c1C(C)=O (centres undefined)	> 12.5	> 12.5	> 12.5	> 12.5	> 12.5	8.36	> 12.5		> 12.5										
CC(=O)ON(OC(C)=O)c1ccc(C)cc1	> 100	> 100	> 100	> 100			> 100	> 100		> 100									
S=c1[nH]nc(COc2ccc3c(c2)CCCC3)n1/N=C/c1ccc(Cl)cc1			41	50.2	32.8	30.3	33.7	31.7		32.4									
CC(=O)N=C(N=Nc1c(O)[nH]c2ccc(C)cc12)NC(C)=O	> 100	> 100	> 100	> 100		> 100	> 100	> 100	> 100	> 100									
COC(CN(C)C(=O)C(C)NC(=O)c1ccccc1)OC (centres undefined)	> 100		> 100	> 100	> 100	> 100	> 100	> 100	> 100	> 100									
Cc1c(N2C(=O)/C(=C/C=C/c3ccccc3)N=C2c2ccccc2)c(=O)n(-c2ccccc2)n1C	> 100		21	75	47.1	> 100	32	80.3	58.4	66.9									
CC1C(c2ccc(F)cc2)c2cc3c(cc2OC1N1CCCC1)OCO3 (centres undefined)	> 100	> 100	> 100	> 100	> 100	> 100	> 100	> 100											
Cc1ccc(-c2c(C#N)c(-c3ccc(Cl)cc3)c(C#N)c(=O)n2NS(=O)(=O)c2ccccc2)cc1	> 100	> 100	> 100	> 100	> 100		> 100	> 100	> 100	> 100									
CCOC(=O)/C(C#N)=C/c1ccc2c(-c3c(OCC)ccc4cc(/C=C(\C#N)C(=O)OCC)ccc34)c(OCC)ccc2c1	> 100	> 100	> 100	> 100		> 100	> 100	> 100	> 100	> 100									
O=C(Cn1c(=O)ccn(C2OC(CO)C(O)C2F)c1=O)c1ccc(F)cc1 (centres undefined)	> 100		> 100	> 100	> 100	> 100	> 100	> 100	> 100										
O=C(OCCN=C1c2ccccc2CCc2ccccc21)c1cc([N+](=O)[O-])cc([N+](=O)[O-])c1	> 31.6		> 31.6	> 100	> 31.6		> 31.6	> 31.6	> 31.6	> 100									
Cc1cc(-c2ccc(C(=O)O)[nH]2)on1	> 100	> 100	> 100	> 100			> 100	> 100		> 100									
CC/C(=N\NC(=O)c1cccnc1)c1ccc2c(c1)OCCO2	> 100		> 100	> 100	> 100	> 100	> 100	> 100	> 100	> 100									
